Measured values as given in patent publication US20250051403A1, “ANTIMICROBIAL PEPTIDES, VARIANTS AND CHEMICAL ANALOGUES THEREOF AND THEIR USES” (priority 2021, published 2025).
≈ marks a conversion by molar mass, not a printed value. Positions of bridges follow the written chain, without caps; N, C: chain ends. Residues, ends and D or L forms follow the SMILES beside them.

Tests used:
[1] = test system: P. aeruginosa
[2] = test system: Vibrio alginolyticus
[3] = test system: Mycobacterium tuberculosis mc^26230
[4] = test system: M. smegmatis mc^2155

Row | SMILES | P. aeruginosa MIC [1] | V. alginolyticus MIC [2] | M. tuberculosis mc^26230 MIC [3] | M. smegmatis mc^2155 MIC [4] | MIC [2] | MIC [4]
1 | CSCC[C@@H]1NC(=O)[C@H](Cc2ccccc2)NC(=O)[C@@H]2CSSC[C@H](NC(=O)[C@H](C(C)C)NC(=O)[C@H](CCCNC(=N)N)NC(=O)[C@H](C(C)C)NC(=O)[C@@H](NC(=O)[C@@H](NC(=O)[C@H](CO)NC(=O)[C@@H](NC(=O)[C@H](C)NC(=O)[C@H](CCCCN)NC(=O)[C@@H](N)CCCNC(=N)N)C(C)C)[C@@H](C)O)CSSC[C@@H](C(=O)N[C@@H](Cc3c[nH]c4ccccc34)C(=O)N[C@@H](CC(N)=O)C(=O)N[C@H](C(=O)O)[C@@H](C)O)NC(=O)[C@H](CCCCN)NC1=O)C(=O)N[C@@H](CCCNC(=N)N)C(=O)N[C@@H](CC(N)=O)C(=O)NCC(=O)N[C@@H](Cc1ccccc1)C(=O)N2 [V7, RKAVSTC2VRVC3RNGFC4FMKCWNT] (H-RKAVSTCVRVCRNGFCFMKCWNT-OH; disulfide 7-20, 11-16 (inferred); N-terminus and C-terminus assumed) | 2.5 to 5 µM | 0.125 to 0.312 µM | >30 µM | 9.22 to 13.1 µM | – | –
2 | CC[C@H](C)[C@H](NC(=O)[C@H](CCCNC(=N)N)NC(=O)[C@@H](NC(=O)[C@H](CS)NC(=O)[C@@H](NC(=O)[C@@H](N)CCCNC(=N)N)C(C)C)C(C)C)C(=O)N[C@@H](CS)C(=O)N[C@@H](CCCNC(=N)N)C(=O)N[C@@H](CC(N)=O)C(=O)NCC(=O)N[C@@H](CCCNC(=N)N)C(=O)N[C@@H](CS)C(=O)N[C@@H](Cc1ccc(O)cc1)C(=O)N[C@@H](CCCNC(=N)N)C(=O)N[C@@H](CCCNC(=N)N)C(=O)N[C@@H](CS)C(=O)N[C@@H](Cc1c[nH]c2ccccc12)C(=O)N[C@@H](CC(N)=O)C(=O)N[C@H](C(=O)O)[C@@H](C)O [Linear unfolded analogue of Michelicin] (H-RVCVRICRNGRCYRRCWNT-OH; N-terminus and C-terminus assumed) | – | – | – | – | 0.625 µM (≈ 1.51 µg/mL) | 1.25 µM (≈ 3.02 µg/mL)
3 | CSCC[C@@H]1NC(=O)[C@H](Cc2ccccc2)NC(=O)[C@@H]2CSSC[C@H](NC(=O)[C@H](C(C)C)NC(=O)[C@H](CCCNC(=N)N)NC(=O)[C@H](C(C)C)NC(=O)[C@@H](NC(=O)[C@@H](NC(=O)[C@@H](N)CCCNC(=N)N)C(C)C)CSSC[C@@H](C(=O)N[C@@H](Cc3c[nH]c4ccccc34)C(=O)N[C@@H](CC(N)=O)C(=O)N[C@H](C(=O)O)[C@@H](C)O)NC(=O)[C@H](CCCCN)NC1=O)C(=O)N[C@@H](CCCNC(=N)N)C(=O)N[C@@H](CC(N)=O)C(=O)NCC(=O)N[C@@H](Cc1ccccc1)C(=O)N2 [V9, RVC1VRVC2RNGFC3FMKC4WNT] (H-RVCVRVCRNGFCFMKCWNT-OH; disulfide 3-16, 7-12; N-terminus and C-terminus assumed) | 1.25 to 2.5 µM | 0.125 to 0.312 µM | 5.1 to 9.1 µM | 1.02 to 3.31 µM | – | –
4 | CC[C@H](C)[C@H](NC(=O)[C@@H](N)CCCNC(=N)N)C(=O)N[C@H]1CSSC[C@@H](C(=O)N[C@@H](Cc2c[nH]c3ccccc23)C(=O)N[C@@H](CC(N)=O)C(=O)N[C@H](C(=O)O)[C@@H](C)O)NC(=O)[C@H](CCCCN)NC(=O)[C@H](CCSC)NC(=O)[C@H](Cc2ccccc2)NC(=O)[C@@H]2CSSC[C@H](NC(=O)[C@H](C(C)C)NC(=O)[C@H](CCCNC(=N)N)NC(=O)[C@H](C(C)C)NC1=O)C(=O)N[C@@H](CCCNC(=N)N)C(=O)N[C@@H](CC(N)=O)C(=O)NCC(=O)N[C@@H](Cc1ccccc1)C(=O)N2 [V4, RIC1VRVC2RNGFC3FMKC4WNT] (H-RICVRVCRNGFCFMKCWNT-OH; disulfide 3-16, 7-12; N-terminus and C-terminus assumed) | 2.5 to 5 µM | 0.312 to 0.625 µM | 7.5 to 7.9 µM | 1.49 to 4.15 µM | – | –
5 | CC[C@H](C)[C@H](NC(=O)[C@@H](N)CCCNC(=N)N)C(=O)N[C@H]1CSSC[C@@H](C(=O)N[C@@H](Cc2c[nH]c3ccccc23)C(=O)N[C@@H](CC(N)=O)C(=O)N[C@H](C(=O)O)[C@@H](C)O)NC(=O)[C@H](CCCCN)NC(=O)[C@H](CCSC)NC(=O)[C@H](Cc2ccccc2)NC(=O)[C@@H]2CSSC[C@H](NC(=O)[C@H](C(C)C)NC(=O)[C@H](CCCNC(=N)N)NC(=O)[C@H](C(C)C)NC1=O)C(=O)N[C@@H](CCCNC(=N)N)C(=O)N[C@@H](CC(N)=O)C(=O)NCC(=O)N[C@@H](CCCNC(=N)N)C(=O)N2 [V6, RIC1VRVC2RNGRC3FMKC4WNT] (H-RICVRVCRNGRCFMKCWNT-OH; disulfide 3-16, 7-12; N-terminus and C-terminus assumed) | >5 µM | 0.125 to 0.312 µM | >30 µM | 1.27 to 2.96 µM | – | –
6 | CC[C@H](C)[C@@H]1NC(=O)[C@H](Cc2ccccc2)NC(=O)[C@H](CC(C)C)NC(=O)[C@@H]2CSSC[C@H](NC(=O)[C@H](CCCNC(=N)N)NC1=O)C(=O)N[C@@H](Cc1ccccc1)C(=O)N[C@@H](CCSC)C(=O)N[C@@H](CCCCN)C(=O)N[C@H](C(=O)N[C@@H](Cc1c[nH]c3ccccc13)C(=O)N[C@@H](CC(N)=O)C(=O)N[C@H](C(=O)O)[C@@H](C)O)CSSC[C@H](NC(=O)[C@H](Cc1ccccc1)NC(=O)[C@@H](N)CCCNC(=N)N)C(=O)N[C@@H](C(C)C)C(=O)N[C@@H](CCCNC(=N)N)C(=O)N[C@@H](C(C)C)C(=O)N2 [V5, RFC1VRVC2LFIRC3FMKC4WNT] (H-RFCVRVCLFIRCFMKCWNT-OH; disulfide 3-16, 7-12; N-terminus and C-terminus assumed) | >20 µM | 0.625 to 1.25 µM | 5.3 to 7.9 µM | 3.06 to 8.40 µM | – | –
7 | CC[C@H](C)[C@@H]1NC(=O)[C@H](CCCNC(=N)N)NC(=O)[C@H](C(C)C)NC(=O)[C@@H](NC(=O)[C@@H](NC(=O)[C@@H](N)CCCNC(=N)N)C(C)C)CSSC[C@@H](C(=O)N[C@@H](Cc2c[nH]c3ccccc23)C(=O)N[C@@H](CC(N)=O)C(=O)N[C@H](C(=O)O)[C@@H](C)O)NC(=O)[C@H](CCCCN)NC(=O)[C@H](CCSC)NC(=O)[C@H](Cc2ccccc2)NC(=O)[C@@H]2CSSC[C@H](NC1=O)C(=O)N[C@@H](CCCNC(=N)N)C(=O)N[C@@H](CC(N)=O)C(=O)NCC(=O)N[C@@H](Cc1ccccc1)C(=O)N2 [V8, RVC1VRIC2RNGFC3FMKC4WNT] (H-RVCVRICRNGFCFMKCWNT-OH; disulfide 3-16, 7-12; N-terminus and C-terminus assumed) | 1.25 to 2.5 µM | 0.125 to 0.312 µM | 7.3 to 11.9 µM | 0.72 to 3.92 µM | – | –
8 | CC[C@H](C)[C@@H]1NC(=O)[C@@H]2CSSC[C@H](NC(=O)[C@H](C(C)C)NC(=O)[C@H](CCCNC(=N)N)NC(=O)[C@H](C(C)C)NC(=O)[C@@H](NC(=O)[C@@H](NC(=O)[C@@H](N)CCCNC(=N)N)[C@@H](C)CC)CSSC[C@@H](C(=O)N[C@@H](Cc3c[nH]c4ccccc34)C(=O)N[C@@H](CC(N)=O)C(=O)N[C@H](C(=O)O)[C@@H](C)O)NC(=O)[C@H](CCCCN)NC(=O)[C@H](CCSC)NC1=O)C(=O)N[C@@H](CCCNC(=N)N)C(=O)N[C@@H](CC(N)=O)C(=O)NCC(=O)N[C@@H](CCCNC(=N)N)C(=O)N2 [V3, RIC1VRVC2RNGRC3IMKC4WNT] (H-RICVRVCRNGRCIMKCWNT-OH; disulfide 3-16, 7-12; N-terminus and C-terminus assumed) | 2.5 to 5 µM | 0.625 to 1.25 µM | 22.9 to 29.6 µM | 0.64 to 4.66 µM | – | –
9 | CC(C)[C@@H]1NC(=O)[C@H](CCCNC(=N)N)NC(=O)[C@H](C(C)C)NC(=O)[C@@H](NC(=O)[C@@H](NC(=O)[C@@H](N)CCCNC(=N)N)C(C)C)CSSC[C@@H](C(=O)N[C@@H](Cc2c[nH]c3ccccc23)C(=O)N[C@@H](CC(N)=O)C(=O)N[C@H](C(=O)O)[C@@H](C)O)NC(=O)[C@H](CCCNC(=N)N)NC(=O)[C@H](CCCNC(=N)N)NC(=O)[C@H](Cc2ccc(O)cc2)NC(=O)[C@@H]2CSSC[C@H](NC1=O)C(=O)N[C@@H](CCCNC(=N)N)C(=O)N[C@@H](CC(N)=O)C(=O)NCC(=O)N[C@@H](CCCNC(=N)N)C(=O)N2 [V1, RVC1VRVC2RNGRC3YRRC4WNT] (H-RVCVRVCRNGRCYRRCWNT-OH; disulfide 3-16, 7-12; N-terminus and C-terminus assumed) | 2.5 to 5 µM | 0.125 to 0.312 µM | 29.8 to 30.2 µM | 1.15 to 4.21 µM | – | –
10 | CC[C@H](C)[C@@H]1NC(=O)[C@@H]2CSSC[C@H](NC(=O)[C@H](C(C)C)NC(=O)[C@H](CCCNC(=N)N)NC(=O)[C@H](C(C)C)NC(=O)[C@@H](NC(=O)[C@H](Cc3ccccc3)NC(=O)[C@@H](N)CCCNC(=N)N)CSSC[C@@H](C(=O)N[C@@H](Cc3c[nH]c4ccccc34)C(=O)N[C@@H](CC(N)=O)C(=O)N[C@H](C(=O)O)[C@@H](C)O)NC(=O)[C@H](CCCCN)NC(=O)[C@H](CCSC)NC1=O)C(=O)N[C@@H](CCCNC(=N)N)C(=O)N[C@@H](CC(N)=O)C(=O)NCC(=O)N[C@@H](CCCNC(=N)N)C(=O)N2 [V2, RFC1VRVC2RNGRC3IMKC4WNT] (H-RFCVRVCRNGRCIMKCWNT-OH; disulfide 3-16, 7-12; N-terminus and C-terminus assumed) | 2.5 to 5 µM | 0.312 to 0.625 µM | 19.7 to 30.0 µM | 0.72 to 2.95 µM | – | –
